Reference: ChEMBL document CHEMBL1201862, “PubChem BioAssay data set” (2004)
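96-well plates; 48 h exposure; 5 concentrations. Endpoints by linear interpolation between flanking doses. Not reached: highest tested concentration assigned. Here, GI50 denotes the concentration required for 50% inhibition of growth.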 The source made the active and inactive calls. Rule as the data show it: active = GI50 up to about 1.1 µM and inactive = higher.

What was measured:
Experiment in all cases: growth of human tumour cells (NCI), 48 h
[1] = test system: KM12
[2] = test system: CCRF-CEM
[3] = test system: TK-10
[4] = test system: HCC 2998
[5] = test system: SNB-19
[6] = test system: LOX IMVI
[7] = test system: IGROV-1
[8] = test system: U-251
[9] = test system: HL-60
[10] = test system: NCI-H460
[11] = test system: UO-31
[12] = test system: ACHN
[13] = test system: SN12C
[14] = test system: UACC-257
[15] = test system: NCI-H23
[16] = test system: SNB-75

| Compound | GI50 [1] | GI50 [2] | GI50 [3] | GI50 [4] | GI50 [5] | GI50 [6] | GI50 [7] | GI50 [8] | GI50 [9] | GI50 [10] | GI50 [11] | GI50 [12] | GI50 [13] | GI50 [14] | GI50 [15] | GI50 [16] |
| --- | --- | --- | --- | --- | --- | --- | --- | --- | --- | --- | --- | --- | --- | --- | --- | --- |
| CC1CCC2(C)C(CC=C(C=O)C2(O)C=O)C12CO2 (centres undefined) | 3.21 µM (inactive) | 1.26 µM (inactive) | 1.97 µM (inactive) | 2.29 µM (inactive) | 9.66 µM (inactive) | 2.69 µM (inactive) | 2.32 µM (inactive) | 2.81 µM (inactive) | 0.877 µM (active) | 2.57 µM (inactive) | 1.81 µM (inactive) | 1.76 µM (inactive) | 2.6 µM (inactive) | 1.52 µM (inactive) | 2.25 µM (inactive) |  |
| CN1CC(=O)N2Cc3ccccc3-n3cccc3C2C1 (centres undefined) | > 100 µM (inactive) |  | > 100 µM (inactive) | > 100 µM (inactive) | > 100 µM (inactive) | > 100 µM (inactive) | > 100 µM (inactive) | > 100 µM (inactive) |  | > 100 µM (inactive) | > 100 µM (inactive) | > 100 µM (inactive) | > 100 µM (inactive) | > 100 µM (inactive) | > 100 µM (inactive) | > 100 µM (inactive) |
| NC(=S)N/N=C1/C(=O)N(c2ccccc2)C(=O)C1C(=O)Nc1ccccc1 (centres undefined) | > 100 µM (inactive) |  | > 100 µM (inactive) | > 100 µM (inactive) | > 100 µM (inactive) |  | > 100 µM (inactive) | > 100 µM (inactive) | > 100 µM (inactive) | > 100 µM (inactive) | > 100 µM (inactive) | > 100 µM (inactive) | > 100 µM (inactive) | > 100 µM (inactive) | > 100 µM (inactive) | > 100 µM (inactive) |
| COc1ccc2c(c1)C(CCN)C(=O)N2 (centres undefined) | > 100 µM (inactive) | > 100 µM (inactive) | > 100 µM (inactive) | > 100 µM (inactive) |  | > 100 µM (inactive) | > 100 µM (inactive) | > 100 µM (inactive) | > 100 µM (inactive) | > 100 µM (inactive) |  | > 100 µM (inactive) |  | > 100 µM (inactive) | > 100 µM (inactive) | > 100 µM (inactive) |
| CC(=O)OCC(OC(C)=O)C(OC(C)=O)C(OC(C)=O)C(=O)CNn1c(-c2ccccc2)nc2ccc(Br)cc2c1=O (centres undefined) | > 100 µM (inactive) | > 100 µM (inactive) |  |  | > 100 µM (inactive) | > 100 µM (inactive) |  | > 100 µM (inactive) | > 100 µM (inactive) | > 100 µM (inactive) | > 100 µM (inactive) | > 100 µM (inactive) | > 100 µM (inactive) | > 100 µM (inactive) | > 100 µM (inactive) | > 100 µM (inactive) |
| COc1cc(Br)c(C2OCCCO2)cc1OCc1ccccc1 | > 100 µM (inactive) | 94.2 µM (inactive) | > 100 µM (inactive) |  | > 100 µM (inactive) | 78.3 µM (inactive) | > 100 µM (inactive) | > 100 µM (inactive) | 38.5 µM (inactive) | 55.7 µM (inactive) | 28.2 µM (inactive) | 37.9 µM (inactive) | > 100 µM (inactive) |  | 85.5 µM (inactive) | > 100 µM (inactive) |
| COc1ccc(/C=C/C(=O)c2sc(NC(=S)NC(=O)c3ccc(Cl)cc3)nc2C)cc1OC | 59.2 µM (inactive) | 26.2 µM (inactive) | > 100 µM (inactive) | > 100 µM (inactive) | 40.5 µM (inactive) | 32.2 µM (inactive) | 43.1 µM (inactive) | 34.6 µM (inactive) | 30.3 µM (inactive) | 84.7 µM (inactive) | 64 µM (inactive) | 59.6 µM (inactive) | 36.6 µM (inactive) | 47.5 µM (inactive) | 33.5 µM (inactive) |  |
| CCCN(CCCCC(NC(C)=O)C(=O)NCc1ccccc1)C(=O)NCCCl (centres undefined) | > 100 µM (inactive) | > 100 µM (inactive) | > 100 µM (inactive) | > 100 µM (inactive) | > 100 µM (inactive) |  |  | > 100 µM (inactive) | > 100 µM (inactive) | > 100 µM (inactive) | > 100 µM (inactive) | > 100 µM (inactive) | > 100 µM (inactive) | > 100 µM (inactive) | > 100 µM (inactive) | > 100 µM (inactive) |
| Nc1c(-c2ccccc2-c2c(N)[n+]([O-])c3ccccc3[n+]2[O-])[n+]([O-])c2ccccc2[n+]1[O-] | 8.32 µM (inactive) | 2.49 µM (inactive) | 33.7 µM (inactive) | 22 µM (inactive) | 7.91 µM (inactive) | 8.83 µM (inactive) |  | 5.46 µM (inactive) | 3.69 µM (inactive) | 2.51 µM (inactive) | 10 µM (inactive) | 8.32 µM (inactive) | 6.17 µM (inactive) | 7.45 µM (inactive) | 15.6 µM (inactive) | 22.2 µM (inactive) |
| COc1cc(CNc2nc3ccc(C(F)(F)F)cc3nc2-c2ccccc2)cc(OC)c1OC | 24.6 µM (inactive) | 15.3 µM (inactive) | 27.1 µM (inactive) | 38.8 µM (inactive) | 65.8 µM (inactive) | 32.1 µM (inactive) | 67.3 µM (inactive) | 44.5 µM (inactive) | 5.55 µM (inactive) | 34.1 µM (inactive) | 5.93 µM (inactive) |  | 29.6 µM (inactive) | 34.9 µM (inactive) | 27.9 µM (inactive) | 8.38 µM (inactive) |
| O=C1O[C@@H](c2ccccc2)C[C@@H]1CN1CCOCC1 | > 100 µM (inactive) | > 100 µM (inactive) | > 100 µM (inactive) | > 100 µM (inactive) |  | > 100 µM (inactive) | > 100 µM (inactive) | > 100 µM (inactive) | > 100 µM (inactive) | > 100 µM (inactive) | > 100 µM (inactive) | > 100 µM (inactive) | > 100 µM (inactive) | > 100 µM (inactive) | 26.3 µM (inactive) | > 100 µM (inactive) |
| O=C1c2ccncc2C(=O)c2c(O)ccc(O)c21 | 6.07 µM (inactive) | 4.33 µM (inactive) | 27.5 µM (inactive) | 4.92 µM (inactive) | 12.4 µM (inactive) | 4.25 µM (inactive) | 12.5 µM (inactive) | 16 µM (inactive) | 2.22 µM (inactive) | 11.4 µM (inactive) | 16.2 µM (inactive) | 4.27 µM (inactive) | 4.73 µM (inactive) |  |  | 23.6 µM (inactive) |
| COc1ccc(C2=C(Cl)c3cc(OC)c(OC)cc3C2Cl)cc1OC (centres undefined) |  | 4.32 µM (inactive) | 19.4 µM (inactive) |  | 15.9 µM (inactive) | 14.9 µM (inactive) | 20.9 µM (inactive) | 15.4 µM (inactive) | 13.7 µM (inactive) | 16.5 µM (inactive) | 16.3 µM (inactive) | 16.6 µM (inactive) | 17.9 µM (inactive) | 17.8 µM (inactive) | 15.9 µM (inactive) | 13.6 µM (inactive) |
| O=C(NCCCN1CCN(CCCNC(=O)c2cnc3ccccc3n2)CC1)c1cnc2ccccc2n1 | > 100 µM (inactive) | > 100 µM (inactive) |  | > 100 µM (inactive) | > 100 µM (inactive) | 76.6 µM (inactive) | > 100 µM (inactive) | > 100 µM (inactive) | > 100 µM (inactive) | > 100 µM (inactive) | > 100 µM (inactive) | 74.1 µM (inactive) | > 100 µM (inactive) | > 100 µM (inactive) |  | > 100 µM (inactive) |
